According to patent publication US20070049564A1 (Wyeth, priority 2005, published 2007):
≈ marks a conversion by molar mass, not a printed value. Read-outs that look alike come from different tables or passages of the source.

Columns and labels:
Salmonella spp. GC 566 = assay: MIC, broth microdilution; conditions: Salmonella
Description: (§1) Antimicrobial susceptibility testing. The in vitro activities of the antibiotics are determined by the broth microdilution method as recommended by the National Committee for Clinical Laboratory Standards (NCCLS) (1). Mueller-Hinton II broth (MHBII)(BBL Cockeysville, Md.) is the medium employed in the testing procedures. Microtiter plates containing serial dilutions of each antimicrobial agent are inoculated with each organism to yield the appropriate density (10^5 CFU/ml) in a 100 μl final volume. The plates are incubated for 18-22 hours at 35° C. in ambient air.
(§2) Presented in Tables I-XIII are representative compounds of Formula I which were evaluated against a panel of 40 selected gram-positive and gram-negative bacteria strains by pre-incubation in water, mouse serum or human serum. Representative compounds were first incubated in mouse serum for an hour prior to the in vitro testing against a panel of selected gram-positive and gram-negative bacteria strains. All compounds were also pre-incubated in water for an hour prior to testing as control. Representative compounds of Formula I were incubated in human serum prior to MIC determination.

Salmonella spp. GC 235 = assay: MIC, broth microdilution
S. cholerasius GC 1355 = assay: MIC, broth microdilution
Description: as §1, §2

E. coli #311 = assay: In vivo activity (oral, iv; ED50) against E. coli in mice; conditions: Escherichia coli
Description: . […] Smith and E. Coli #311 in mammals.
Results of the tests (MIC, oral and IV) are list in Table 7.

Staph. aureus Smith = assay: In vitro activity (MIC) against Staph. aureus Smith; type: cell-based; conditions: Staphylococcus aureus
E. coli = assay: In vitro activity (MIC) against E. coli (Table 7); type: cell-based; conditions: Escherichia coli
[1] = SPP.GC566, Salmonella spp. GC 566, Mouse Serum pre-incubation
[2] = SPP.GC566, Salmonella spp. GC 566, Water pre-incubation
[3] = Salmonella, SPP.GC235, Salmonella spp. GC 235, Mouse Serum pre-incubation
[4] = Salmonella, SPP.GC235, Salmonella spp. GC 235, Water pre-incubation
[5] = S. cholerasius GC 1355, Mouse Serum pre-incubation
[6] = S. cholerasius GC 1355, Water pre-incubation
[7] = single intravenous dose (SIV), read-out: ED50 E. coli #311 SIV
[8] = single oral dose (SOD), read-out: ED50 E. coli #311 SOD
[9] = single intravenous dose, mice, Table 7, read-out: ED50 SIV (E. coli)
[10] = single oral dose, mice, Table 7, read-out: ED50 SOD (E. coli)
[11] = SPP.GC566, pre-incubation in human serum
[12] = SPP.GC566, pre-incubation in mouse serum
[13] = SPP.GC566, pre-incubation in water
[14] = Salmonella, SPP.GC235, pre-incubation in human serum
[15] = Salmonella, SPP.GC235, pre-incubation in mouse serum
[16] = Salmonella, SPP.GC235, pre-incubation in water

| Structure (SMILES) | ED50 (E. coli #311; [7]) | ED50 (E. coli #311; [8]) | MIC (Staph. aureus Smith; Table 6) | MIC (Salmonella spp. GC 566; [12]) | MIC (Salmonella spp. GC 566; [13]) | MIC (Salmonella spp. GC 235; [15]) | MIC (Salmonella spp. GC 235; [16]) | MIC (S. cholerasius GC 1355; pre-incubation in mouse serum) | MIC (S. cholerasius GC 1355; pre-incubation in water) | further results |
| --- | --- | --- | --- | --- | --- | --- | --- | --- | --- | --- |
| CCCCN(CC(=O)Nc1cc(N(C)C)c2c(c1O)C(=O)C1=C(O)[C@]3(O)C(=O)C(C(N)=O)=C(O)[C@@H](N(C)C)[C@@H]3C[C@@H]1C2)C(=O)OCOC(=O)c1ccc(F)cc1 [Example 4, ({[(2-{[(5aR,6aS,7S,10aS)-9-(aminocarbonyl)-4,7-bis(dimethylamino)-1,8,10a,11-tetrahydroxy-10,12-dioxo-5,5a,6,6a,7,10,10a,12-octahydrotetracen-2-yl]amino}-2-oxoethyl)(butyl)amino]carbonyl}oxy)methyl 4-fluorobenzoate] | > 2 mg/kg | > 32 mg/kg | – | – | – | – | – | – | – | MIC (Salmonella spp. GC 566; [1]): 4 µg/mL (≈ 5.12 µM); MIC (Salmonella spp. GC 566; [2]): > 64 µg/mL; MIC (Salmonella spp. GC 235; [3]): 2 µg/mL (≈ 2.56 µM); MIC (Salmonella spp. GC 235; [4]): > 64 µg/mL; MIC (S. cholerasius GC 1355; [5]): 8 µg/mL (≈ 10.2 µM); MIC (S. cholerasius GC 1355; [6]): > 64 µg/mL |
| CCCN(CC(=O)Nc1cc(N(C)C)c2c(c1O)C(=O)C1=C(O)[C@]3(O)C(=O)C(C(N)=O)=C(O)[C@@H](N(C)C)[C@@H]3C[C@@H]1C2)C(=O)OCC [Example 15, ethyl 2-{[(5aR,6aS,7S,10aS)-9-(aminocarbonyl)-4,7-bis(dimethylamino)-1,8,10a,11-tetrahydroxy-10,12-dioxo-5,5a,6,6a,7,10,10a,12-octahydrotetracen-2-yl]amino}-2-oxoethyl(propyl)carbamate] | – | – | – | – | – | – | – | – | – | MIC (Salmonella spp. GC 566; [1]): > 64 µg/mL; MIC (Salmonella spp. GC 566; [2]): > 64 µg/mL; MIC (Salmonella spp. GC 235; [3]): > 64 µg/mL; MIC (Salmonella spp. GC 235; [4]): > 64 µg/mL; MIC (S. cholerasius GC 1355; [5]): > 64 µg/mL; MIC (S. cholerasius GC 1355; [6]): > 64 µg/mL |
| CCCN(CC(=O)Nc1cc(N(C)C)c2c(c1O)C(=O)C1=C(O)[C@]3(O)C(=O)C(C(N)=O)=C(O)[C@@H](N(C)C)[C@@H]3C[C@@H]1C2)C(=O)OCC(C)C [Example 16, isobutyl 2-{[(5aR,6aS,7S,10aS)-9-(aminocarbonyl)-4,7-bis(dimethylamino)-1,8,10a,11-tetrahydroxy-10,12-dioxo-5,5a,6,6a,7,10,10a,12-octahydrotetracen-2-yl]amino}-2-oxoethyl(propyl)carbamate] | – | – | – | – | – | – | – | – | – | MIC (Salmonella spp. GC 566; [1]): > 64 µg/mL; MIC (Salmonella spp. GC 566; [2]): > 64 µg/mL; MIC (Salmonella spp. GC 235; [3]): > 64 µg/mL; MIC (Salmonella spp. GC 235; [4]): > 64 µg/mL; MIC (S. cholerasius GC 1355; [5]): > 64 µg/mL; MIC (S. cholerasius GC 1355; [6]): > 64 µg/mL |
| CCCN(CC(=O)Nc1cc(N(C)C)c2c(c1O)C(=O)C1=C(O)[C@]3(O)C(=O)C(C(N)=O)=C(O)[C@@H](N(C)C)[C@@H]3C[C@@H]1C2)C(=O)OCOC(=O)c1cc(C)cc(C)c1 [Example 26, ({[(2-{[(5aR,6aS,7S,10aS)-9-(aminocarbonyl)-4,7-bis(dimethylamino)-1,8,10a,11-tetrahydroxy-10,12-dioxo-5,5a,6,6a,7,10,10a,12-octahydrotetracen-2-yl]amino}-2-oxoethyl)(propyl)amino]carbonyl}oxy)methyl 3,5-dimethylbenzoate] | – | – | – | – | – | – | – | – | – | MIC (Staph. aureus Smith; Table 8): 0.5 µg/mL (≈ 0.643 µM) |
| CCCN(CC(=O)Nc1cc(N(C)C)c2c(c1O)C(=O)C1=C(O)[C@]3(O)C(=O)C(C(N)=O)=C(O)[C@@H](N(C)C)[C@@H]3C[C@@H]1C2)C(=O)OCOC(=O)c1ccc(C(C)(C)C)cc1 [Example 28, ({[(2-{[(5aR,6aS,7S,10aS)-9-(aminocarbonyl)-4,7-bis(dimethylamino)-1,8,10a,11-tetrahydroxy-10,12-dioxo-5,5a,6,6a,7,10,10a,12-octahydrotetracen-2-yl]amino}-2-oxoethyl)(propyl)amino]carbonyl}oxy)methyl 4-tert-butylbenzoate] | > 2 mg/kg | > 32 mg/kg | – | – | – | – | – | – | – | MIC (Staph. aureus Smith; Table 8): 32 µg/mL (≈ 39.7 µM) |
| CN(C)c1cc(NC(=O)CN(C(=O)OCOC(=O)CC(C)(C)C)C(C)(C)C)c(O)c2c1C[C@H]1C[C@H]3[C@H](N(C)C)C(O)=C(C(N)=O)C(=O)[C@@]3(O)C(O)=C1C2=O [Example 42, ({[(2-{[(5aR,6aS,7S,10aS)-9-(aminocarbonyl)-4,7-bis(dimethylamino)-1,8,10a,11-tetrahydroxy-10,12-dioxo-5,5a,6,6a,7,10,10a,12-octahydrotetracen-2-yl]amino}-2-oxoethyl)(tert-butyl)amino]carbonyl}oxy)methyl 3,3-dimethylbutanoate] | 3.1 mg/kg | 30.3 mg/kg | 8 µg/mL (≈ 10.6 µM) | – | – | – | – | – | – | MIC (E. coli): > 64 µg/mL; ED50 (E. coli #311; [9]): 3.1 mg/kg; ED50 (E. coli #311; [10]): 30.3 mg/kg |
| CCC(C)(C)C(=O)OCOC(=O)N(CC(=O)Nc1cc(N(C)C)c2c(c1O)C(=O)C1=C(O)[C@]3(O)C(=O)C(C(N)=O)=C(O)[C@@H](N(C)C)[C@@H]3C[C@@H]1C2)C(C)(C)C [Example 44, ({[(2-{[(5aR,6aS,7S,10aS)-9-(aminocarbonyl)-4,7-bis(dimethylamino)-1,8,10a,11-tetrahydroxy-10,12-dioxo-5,5a,6,6a,7,10,10a,12-octahydrotetracen-2-yl]amino}-2-oxoethyl)(tert-butyl)amino]carbonyl}oxy)methyl 2,2-dimethylbutanoate] | 2.85 mg/kg | 42.8 mg/kg | 4 µg/mL (≈ 5.28 µM) | – | – | – | – | – | – | MIC (E. coli): > 64 µg/mL; ED50 (E. coli #311; [9]): 2.85 mg/kg; ED50 (E. coli #311; [10]): 42.8 mg/kg |
| CC(C)C(=O)OCOC(=O)N(CC(=O)Nc1cc(N(C)C)c2c(c1O)C(=O)C1=C(O)[C@]3(O)C(=O)C(C(N)=O)=C(O)[C@@H](N(C)C)[C@@H]3C[C@@H]1C2)C(C)(C)C [Example 45, ({[(2-{[(5aR,6aS,7S,10aS)-9-(aminocarbonyl)-4,7-bis(dimethylamino)-1,8,10a,11-tetrahydroxy-10,12-dioxo-5,5a,6,6a,7,10,10a,12-octahydrotetracen-2-yl]amino}-2-oxoethyl)(tert-butyl)amino]carbonyl}oxy)methyl 2-methylpropanoate] | 1.8 mg/kg | 64 mg/kg | 1 µg/mL (≈ 1.37 µM) | – | – | – | – | – | – | MIC (E. coli): 64 µg/mL (≈ 87.7 µM); ED50 (E. coli #311; [9]): 1.8 mg/kg; ED50 (E. coli #311; [10]): 64 mg/kg |
| Cc1ccc(C(=O)OCOC(=O)N(CC(=O)Nc2cc(N(C)C)c3c(c2O)C(=O)C2=C(O)[C@]4(O)C(=O)C(C(N)=O)=C(O)[C@@H](N(C)C)[C@@H]4C[C@@H]2C3)C(C)(C)C)cc1 [Example 47] | 3.17 mg/kg | > 64 mg/kg | 4 µg/mL (≈ 5.14 µM) | – | – | – | – | – | – | – |
| CCCCC(=O)OCOC(=O)N(CC(=O)Nc1cc(N(C)C)c2c(c1O)C(=O)C1=C(O)[C@]3(O)C(=O)C(C(N)=O)=C(O)[C@@H](N(C)C)[C@@H]3C[C@@H]1C2)C(C)(C)C [Example 61, ({[(2-{[(5aR,6aS,7S,10aS)-9-(aminocarbonyl)-4,7-bis(dimethylamino)-1,8,10a,11-tetrahydroxy-10,12-dioxo-5,5a,6,6a,7,10,10a,12-octahydrotetracen-2-yl]amino}-2-oxoethyl)(tert-butyl)amino]carbonyl}oxy)methyl pentanoate] | 2 to 4 mg/kg | > 32 mg/kg | – | 1 µg/mL (≈ 1.34 µM) | > 64 µg/mL | 1 µg/mL (≈ 1.34 µM) | > 64 µg/mL | 2 µg/mL (≈ 2.69 µM) | > 64 µg/mL | MIC (Salmonella spp. GC 566; [11]): 32 µg/mL (≈ 43 µM); MIC (Salmonella spp. GC 235; [14]): 16 µg/mL (≈ 21.5 µM); MIC (S. cholerasius GC 1355; pre-incubation in human serum): 64 µg/mL (≈ 86 µM) |
| CN(C)c1cc(NC(=O)CN(C(=O)OCOC(=O)C2CCC2)C(C)(C)C)c(O)c2c1C[C@H]1C[C@H]3[C@H](N(C)C)C(O)=C(C(N)=O)C(=O)[C@@]3(O)C(O)=C1C2=O [Example 62, ({[(2-{[(5aR,6aS,7S,10aS)-9-(aminocarbonyl)-4,7-bis(dimethylamino)-1,8,10a,11-tetrahydroxy-10,12-dioxo-5,5a,6,6a,7,10,10a,12-octahydrotetracen-2-yl]amino}-2-oxoethyl)(tert-butyl)amino]carbonyl}oxy)methyl cyclobutanecarboxylate] | 4 to 8 mg/kg | > 32 mg/kg | – | 1 µg/mL (≈ 1.35 µM) | > 64 µg/mL | 1 µg/mL (≈ 1.35 µM) | > 64 µg/mL | 2 µg/mL (≈ 2.7 µM) | > 64 µg/mL | MIC (Salmonella spp. GC 566; [11]): 16 µg/mL (≈ 21.6 µM); MIC (Salmonella spp. GC 235; [14]): 8 µg/mL (≈ 10.8 µM); MIC (S. cholerasius GC 1355; pre-incubation in human serum): 32 µg/mL (≈ 43.1 µM) |
| CN(C)c1cc(NC(=O)CN(C(=O)OCOC(=O)CCC2CCCCC2)C(C)(C)C)c(O)c2c1C[C@H]1C[C@H]3[C@H](N(C)C)C(O)=C(C(N)=O)C(=O)[C@@]3(O)C(O)=C1C2=O [Example 63, ({[(2-{[(5aR,6aS,7S,10aS)-9-(aminocarbonyl)-4,7-bis(dimethylamino)-1,8,10a,11-tetrahydroxy-10,12-dioxo-5,5a,6,6a,7,10,10a,12-octahydrotetracen-2-yl]amino}-2-oxoethyl)(tert-butyl)amino]carbonyl}oxy)methyl 3-cyclohexylpropanoate] | 4 to 8 mg/kg | > 32 mg/kg | – | 1 µg/mL (≈ 1.25 µM) | > 64 µg/mL | 1 µg/mL (≈ 1.25 µM) | > 64 µg/mL | 2 µg/mL (≈ 2.51 µM) | > 64 µg/mL | MIC (Salmonella spp. GC 566; [11]): > 64 µg/mL; MIC (Salmonella spp. GC 235; [14]): > 64 µg/mL; MIC (S. cholerasius GC 1355; pre-incubation in human serum): > 64 µg/mL |
| CCCCN(CC(=O)Nc1cc(N(C)C)c2c(c1O)C(=O)C1=C(O)[C@]3(O)C(=O)C(C(N)=O)=C(O)[C@@H](N(C)C)C3CC1C2)C(=O)OCc1oc(=O)oc1C (stereo partly drawn) [Example 109, (5-methyl-2-oxo-1,3-dioxol-4-yl)methyl 2-{[(7S,10aS)-9-(aminocarbonyl)-4,7-bis(dimethylamino)-1,8,10a,11-tetrahydroxy-10,12-dioxo-5,5a,6,6a,7,10,10a,12-octahydrotetracen-2-yl]amino}-2-oxoethyl(butyl)carbamate] | – | – | – | 2 µg/mL (≈ 2.7 µM) | 4 µg/mL (≈ 5.39 µM) | 1 µg/mL (≈ 1.35 µM) | 2 µg/mL (≈ 2.7 µM) | 8 µg/mL (≈ 10.8 µM) | 32 µg/mL (≈ 43.1 µM) | MIC (Salmonella spp. GC 235; pre-incubation in water): 4 UG/ML |
